In publication PMC8729770, “In Vitro Evaluation of Antimicrobial Peptides from the Black Soldier Fly (Hermetia Illucens) against a Selection of Human Pathogens” (Microbiology Spectrum, 2022):
Ends that are not written are not given here.

Key:
[1] = tested on: P. aeruginosa ATCC 9027; assay: Time-to-kill analysis; assay type: cell-based, Pseudomonas aeruginosa
Protocol: To investigate the bactericidal kinetics of the selected AMPs, a time-to-kill analysis was performed as described previously by Mascio et al. ([78]). Briefly, peptide serial dilutions were prepared in 96-well plates (10 μL) and mixed with 190 μL of a P. aeruginosa ATCC 9027 culture of an optical density measured at a wavelength of 600 nm (OD600) of 0.1. Plates were incubated at 37°C and at selected time points (0 h, 0.5 h, 1 h, 2 h, 4 h, and 5 h), aliquots were removed and serially diluted in PBS. The dilutions were plated on TSA and incubated overnight at 37°C. Afterwards, bacterial viability was assessed by performing a standard plate count. Bactericidal activity was defined as a ≥3-log reduction compared with the untreated bacterial control. To avoid carry-over effect of the peptides, the undiluted sample was not plated, leading to a quantification limit of 10^3 CFU/mL ([78]). Bacterial counts were calculated for each AMP concentration at each time point using the average plate count. Afterwards, log10 reductions of the bacterial counts were calculated using the following formula: log10 reduction = log10 (viable microorganisms without AMP treatment/viable microorganisms with AMP treatment). Next, the average log10 reductions and the standard deviations of five independent experiments were calculated and visualized using GraphPad Prism 8.

[2] = tested on: preformed P. aeruginosa ATCC 15442 biofilm; assay: Biofilm eradication (postexposure); assay type: cell-based, Pseudomonas aeruginosa; conditions: 128-0.5 μM, 16 h; resazurin
Protocol: After 16 h of incubation at 37°C and shaking at 110 rpm (New Brunswick Innova 4300), a resazurin assay was used as described by Gilbert-Girard et al. to determine the viability of the bacterial cells in the biofilm ([79]). After incubation, the growth medium was removed from the well plates and the bacterial biofilms were washed once with PBS to remove remaining planktonic cells. […] The fluorescence of the wells was measured at λexcitation = 550 nm and λemission = 590 using a microplate reader (Promega). Afterwards, a crystal violet staining was applied to determine the biomass of the biofilms ([79]). The resazurin solution was removed from the well plates and 200 μL of 100% ethanol (VWR Chemicals) was added to fix the biofilms. After 15 min of incubation, the ethanol was discarded from the wells and the plates were left to air dry for 30 min. […] The staining solution was removed after 5 min and the biofilms were washed with PBS. After air-drying for 10 min, the crystal violet stain was solubilized in 200 μL of 100% ethanol. […] The experiment was carried out three times. Polymyxin B sulfate (Sigma-Aldrich) was included as a reference. […] The next day, bacterial viability and biomass were determined with a resazurin assay and crystal violet assay as described earlier. […]

[3] = tested on: P. aeruginosa ATCC 15442; conditions: ATCC 15442, 16 h

Substance: RWYKKIFKPVEKAVQRVRDGTLQALGVAQQAANVYATAQGAQQQRHA-NH2 [Hill-Cec10]
- log10 reduction of P. aeruginosa ([1]; 8 μM (8 × MIC Hill-Cec1, 4 × MIC Hill-Cec10), after 5 h, mean ± SD of five experiments): 2.44 ± 0.46 log10
- log10 reduction of P. aeruginosa ([1]; 16 μM (8 × MIC), after 5 h, mean ± SD of five experiments): 4.60 ± 0.94 log10
- log10 reduction of P. aeruginosa ([1]; 16 μM (8 × MIC), always (all experiments)): ≥ 3 log10
- concentration needed to maintain bactericidal activity ([1]; time-to-kill, ≥3-log10 reduction vs growth control): ≥ 16 µM
- effect on viability of preformed biofilm compared with the untreated control [2]: No significant effect
- MIC P. aeruginosa ATCC 15442 [3]: 4 µM
